Source: patent US20230212156A1 (FERMION OY, priority 2020, published 2023)

Tests used:
[1] = 10 g sample, 3 min sieving; for Particle size distribution (Alpine AJS) <425 μm: mass fraction passing 425 μm sieve; for Particle size distribution (Alpine AJS) >75 μm: mass fraction retained on 75 μm sieve; for Particle size distribution (Alpine AJS) >180 μm: mass fraction retained on 180 μm sieve
Excerpt: In general, the method for carrying out an air jet sieving procedure is as follows.
Together with sample material the sieve is placed on the unit and covered with a lid. A powerful industrial vacuum cleaner generates a strong jet of air which disperses the particles on the sieve through the slotted nozzle rotating below the sieve mesh. Thus the particles are dispersed with each rotation and are distributed over the complete sieve surface. The jet of air causes a continuous new orientation of the particles on the sieve surface. Particles with sizes smaller than the sieve apertures are sucked in by the vacuum cleaner. When using sieves of certain height (e.g. 25 mm height), the inflowing air causes the particles to impact on the lid, thereby helping to destroy agglomerates. The material remaining on the sieve can then be weighed, allowing the amount of the sample having a particle size greater than the aperture of the mesh to be calculated.
Preferably, the sample amount is representative of the sample, and has a mass of at least 10 g. Thus, in one embodiment, the sample amount is 10 g. In this or any other embodiment, sieving time is suitably 3 minutes.
The sieves for use in the air jet sieving method are woven metal sieves. The technical requirements of the test sieves are specified in ISO standard ISO 3310-1:2016 Test sieves—Technical requirements and testing—Part 1: Test sieves of metal wire cloth. The sieves are also according to standard ASTM E11.
The sieving is done according to the process described in Ph.Eur. 2.9.38 Particle-size distribution estimation by analytical sieving. Air jet sieving method is used to determine the mass distribution of particles.
Sieving was done using woven metal sieves according to ISO standard ISO 3310-1:2016 (Test sieves—Technical requirements and testing—Part 1: Test sieves of metal wire cloth). The sieving was done using a single sieve at a time using the appropriate sieve size (75 gm, 180 gm, 425 gm). The sieving was done according to the process described in Ph.Eur. 2.9.38 (Particle-size distribution estimation by analytical sieving).
The sieve was tared. 10 grams of the particle mixture was weighed on the sieve. The sieve was placed on air jet sieve unit and covered with a lid. The vacuum cleaner was switched on, thereby creating a vacuum inside the sieving chamber. The sieving under vacuum was continued for 3 minutes. The finest particles were pulled downwards trough the sieve and the coarse particles remained on the sieve. At the end of the sieving process, the sieve was weighed and the mass of particles remained on the sieve was determined. The sieving process was done as described above using one sieve at a time until the particle size distribution was determined.

[2] = Particle size distribution by laser light diffraction (Beckman Coulter LS 230); settings: for Particle size / particle size distribution by laser light diffraction, in words: based on FIGS. 1-4; for Dv10 / Dv50 / Dv90: volume weighted, Fraunhofer model, suspended in glycerol and water (1:1), 100 mg sample
[3] = alcohols, esters, ethers and hydrocarbons; cited from earlier work

Row | Structure (SMILES) | Particle size distribution (Alpine AJS) <425 μm [1] | Particle size distribution (Alpine AJS) >75 μm [1] | Particle size distribution (Alpine AJS) >180 μm [1] | Particle size / particle size distribution by laser light diffraction, in words [2] | Dv10 [2] | Dv50 [2] | Dv90 [2] | Solubility in most organic solvents [3]
1 | O=C1CN(/N=C/c2ccc([N+](=O)[O-])o2)C(=O)N1 [Comparison Example 9, nitrofurantoin anhydrate, reference compound] | 27% | 99% | 89% | – | – | – | – | –
2 | O=C1CN(/N=C/c2ccc([N+](=O)[O-])o2)C(=O)N1 [Comparison example 8, nitrofurantoin anhydrate, reference compound] | – | – | – | smaller than in example 2 | – | – | – | –
3 | O=C1CN(/N=C/c2ccc([N+](=O)[O-])o2)C(=O)N1 [Example 1, nitrofurantoin anhydrate] | 96% | 99% | 76% | – | – | – | – | –
4 | O=C1CN(/N=C/c2ccc([N+](=O)[O-])o2)C(=O)N1 [Example 3, nitrofurantoin anhydrate] | 98% | 97% | 68% | – | – | – | – | –
5 | O=C1CN(/N=C/c2ccc([N+](=O)[O-])o2)C(=O)N1 [Example 4, nitrofurantoin anhydrate] | 98% | 99% | 80% | – | – | – | – | –
6 | O=C1CN(/N=C/c2ccc([N+](=O)[O-])o2)C(=O)N1 [Example 6, nitrofurantoin anhydrate] | 98% | 87% | 10% | smaller than in example 2 | – | – | – | –
7 | O=C1CN(/N=C/c2ccc([N+](=O)[O-])o2)C(=O)N1 [Example 7, nitrofurantoin anhydrate] | 99% | 94% | 36% | smaller than in example 2 | – | – | – | –
8 | O=C1CN(/N=C/c2ccc([N+](=O)[O-])o2)C(=O)N1 [Nitrofurantoin anhydrate, 1-[[(5-nitro-2-furanyl)methylene]amino]-2,4-imidazolidinedione] | – | – | – | – | – | – | – | sparingly soluble

Further lines, with some results ahead:

Row | Particle size distribution (Alpine AJS) <425 μm [1] | Particle size distribution (Alpine AJS) >75 μm [1] | Particle size distribution (Alpine AJS) >180 μm [1] | Particle size / particle size distribution by laser light diffraction, in words [2] | Dv10 [2] | Dv50 [2] | Dv90 [2] | Structure (SMILES) | Solubility in most organic solvents [3]
9 | 95% | 98% | 72% | narrow particle size distribution | 126 μm | 264 μm | 448 μm | O=C1CN(/N=C/c2ccc([N+](=O)[O-])o2)C(=O)N1 [Example 2a, nitrofurantoin anhydrate] | –
10 | 98% | 98% | 67% | narrow particle size distribution | 163 μm | 348 μm | 667 μm | O=C1CN(/N=C/c2ccc([N+](=O)[O-])o2)C(=O)N1 [Example 2b, nitrofurantoin anhydrate] | –
11 | 95% | 98% | 70% | narrow particle size distribution | 118 μm | 252 μm | 466 μm | O=C1CN(/N=C/c2ccc([N+](=O)[O-])o2)C(=O)N1 [Example 2c, nitrofurantoin anhydrate] | –
12 | 97% | 96% | 51% | – | – | – | – | O=C1CN(/N=C/c2ccc([N+](=O)[O-])o2)C(=O)N1 [Example 5a, nitrofurantoin anhydrate] | –
13 | 98% | 95% | 52% | – | – | – | – | O=C1CN(/N=C/c2ccc([N+](=O)[O-])o2)C(=O)N1 [Example 5b, nitrofurantoin anhydrate] | –
14 | 99% | 93% | 51% | – | – | – | – | O=C1CN(/N=C/c2ccc([N+](=O)[O-])o2)C(=O)N1 [Example 5c, nitrofurantoin anhydrate] | –
